“And” between values parts separate entries of the source, which are not always exact repeats. Equal values may be shown once.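 Briefly, cells in 96-well plates were exposed to five compound concentrations for 48 h, and endpoints were estimated by linear interpolation. GI50 marks 50% less growth. The concentration for full growth arrest is given as TGI.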
How the values were obtained:
Test in all cases: inhibition of tumour cell growth, NCI panel, 48 h
HCT-15 colon = test system: HCT-15 colon
HL-60(TB) leukemia = test system: HL-60(TB) leukemia
KM12 colon = test system: KM12 colon
LOX IMVI melanoma = test system: LOX IMVI melanoma
MALME-3M melanoma = test system: MALME-3M melanoma
NCI-H226 lung = test system: NCI-H226 lung
NCI-H522 lung = test system: NCI-H522 lung
RPMI-8226 leukemia = test system: RPMI-8226 leukemia
SNB-19 CNS = test system: SNB-19 CNS
TK-10 renal = test system: TK-10 renal

Row | SMILES | GI50 (HCT-15 colon) | TGI (HCT-15 colon) [µM] | GI50 (HL-60(TB) leukemia) [µM] | TGI (HL-60(TB) leukemia) [µM] | GI50 (KM12 colon) [µM] | TGI (KM12 colon) [µM] | GI50 (LOX IMVI melanoma) [µM] | TGI (LOX IMVI melanoma) [µM] | GI50 (MALME-3M melanoma) [µM] | TGI (MALME-3M melanoma) [µM] | GI50 (NCI-H226 lung) [µM] | TGI (NCI-H226 lung) [µM] | GI50 (NCI-H522 lung) [µM] | TGI (NCI-H522 lung) [µM] | GI50 (RPMI-8226 leukemia) [µM] | TGI (RPMI-8226 leukemia) [µM] | GI50 (SNB-19 CNS) [µM] | TGI (SNB-19 CNS) [µM] | GI50 (TK-10 renal) [µM] | TGI (TK-10 renal) [µM]
1 | O=c1n(CC2CO2)c(=O)n(CC2CO2)n1CC1CO1 (centres undefined) | 11.1 µM | 44.3 | 4.99 | > 49.4 | 31.5 | > 100 | 16.7 | > 100 | 64.1 | > 100 | 40.6 | > 100 | 12.8 | > 49.2 | 13.6 | > 57.8 | 14.2 | > 100 | 27.9 | > 100
2 | NC1CCC(Nc2nc(NCc3ccc(-c4ccco4)nc3)c3ncn(C4CCCC4)c3n2)CC1 (centres undefined) | 0.298 µM and 1.27 µM | 7.81 | 0.0193 | 0.0729 | 0.0107 | 0.086 | – | 21.9 | 0.035 | 0.212 | 0.126 | – | 0.0164 | 0.0737 | 0.0119 | 0.0895 | 0.0275 | 12.5 | 0.16 | 12.8
3 | C=C(CNCCO)[C@@H]1CC[C@]2(CO)CC[C@]3(C)[C@H](CC[C@@H]4[C@@]5(C)CCC(N)C(C)(C)[C@@H]5CC[C@]43C)[C@@H]12 (some centres undefined) | 5.57 µM | 19 | 1.89 | 4.1 | 3.4 | 10.1 | 1.7 | 3.2 | 1.58 | 3.11 | 11 | 27.9 | 1.93 | 3.7 | 2.03 | 4.73 | 2.27 | 5.23 | 2.54 | 7.07
4 | Cn1ccnc1C(=O)/C=C/c1ccc(CC(=O)Nc2ccc(Br)cc2)cc1 | 2.5 µM | > 16.7 | 4.58 | > 16.7 | 2.66 | 5.51 | 2.07 | 4.28 | 4.04 | 10.8 | 4.15 | > 16.7 | 3.83 | 8.25 | 2.76 | 8.11 | 2.61 | 5.75 | 6.21 | > 16.7
5 | O=C1/C(=C/c2ccc([N+](=O)[O-])cc2)COc2ccc(O)c(O)c21 | 0.606 µM | 3.55 | 0.896 | 6.45 | 1.58 | 3.47 | 1.05 | 2.29 | 1.84 | 5.22 | 11 | 45.8 | 0.204 | 0.474 | 0.316 | 1.01 | 1.56 | 3.1 | 1.68 | 3.99
6 | Cc1cc(=O)[nH]c2cc3oc4ccccc4c3cc12 | – | > 100 | – | 59.3 | – | > 100 | – | > 100 | – | > 100 | – | > 100 | – | > 100 | – | > 100 | – | > 100 | – | > 100
7 | NC(CCc1nc(-c2ccc(Cl)cc2)cs1)C(=O)O (centres undefined) | – | > 100 | – | > 100 | – | > 100 | – | > 100 | – | > 100 | – | > 100 | – | > 100 | – | > 100 | – | > 100 | – | > 100
8 | O=C1c2cccnc2-c2nc(-c3ccccc3[N+](=O)[O-])cc3c2c1nc1ccccc13 | 12 µM | 32.9 | > 100 | > 100 | 14.1 | > 55 | 2.84 | 13.7 | 3.11 | 14.8 | > 100 | > 100 | 2.1 | 6.4 | > 23.8 | > 100 | 24.2 | 84.7 | 14.7 | 36.3
9 | O=C(N/C(=C\c1cc(Cl)ccc1Cl)c1nc2[nH]c(=S)[nH]c(=O)c2[nH]1)c1ccccc1 | – | > 51 | – | 36.3 | – | 73.6 | – | 91.6 | – | > 100 | – | > 100 | – | > 100 | – | 42.7 | – | > 100 | – | > 100
10 | O=C(CSC(=S)N1CCCCC1)Nc1nc2c(s1)CCCC2 | – | > 100 | – | 33.8 | – | > 100 | – | 40.6 | – | > 100 | – | > 100 | – | 65.7 | – | > 100 | – | > 100 | – | > 100
11 | CN(C)CCCNC1=C(Cl)C(=O)c2ccccc2C1=O | 1.76 µM | 4.09 | 2.54 | 5.84 | 5.93 | 19.3 | 1.61 | 3.17 | 2.06 | 3.77 | 5.38 | 10.6 | 2.03 | 3.83 | 4.25 | 21.4 | 1.76 | 3.28 | 15.4 | 29
12 | CC1=C(C(=O)Nc2ccc(F)c(Cl)c2)C(c2ccc(Cl)cc2)NC(=O)N1 (centres undefined) | 19.5 µM | 41.1 | 0.083 | 1.87 | 24.2 | 52.1 | 16.6 | 32 | 16.8 | 38.5 | 15.5 | 38.6 | 17.8 | 34.9 | 13.6 | 36.3 | 33.1 | > 100 | 7.4 | 25.4
13 | COc1ccc(NC(=O)c2cc(OC)cc(OC)c2)cc1 | – | > 100 | – | 39.1 | – | > 100 | – | > 100 | – | > 100 | – | > 100 | – | 83.8 | – | > 100 | – | > 100 | – | > 100
14 | O=C(/C=C/c1ccccc1Cl)c1ccc(Cl)c(Cl)c1 | – | 32.2 | – | 60.7 | – | 29.7 | – | 28 | – | 55.7 | – | > 100 | – | 31.1 | – | > 100 | – | 29.9 | – | 38.8
15 | CCCCCCCC(=O)SCC/C=C/[C@@H]1CC(=O)NCc2cccc(n2)C2=N[C@@](C)(CS2)C(=O)N[C@@H](C(C)C)C(=O)N1 | 14.3 µM | > 33.3 | 0.509 | > 33.3 | 1.21 | > 33.3 | 0.774 | 4.01 | 0.142 | 2.37 | 7.19 | > 33.3 | 0.12 | 1.85 | 0.639 | > 33.3 | 2.06 | > 33.3 | 1.09 | 24.8
16 | CN(C)c1ccc(-c2cc(-c3ccc(Nc4nc(Nc5ccc(Cl)cc5)nc(Nc5ccc(Cl)cc5)n4)cc3)no2)cc1 | 5.2 µM | > 100 | 2.01 | 4.73 | 4.11 | 25.3 | 4.22 | 35.6 | 13 | 36.9 | 20.2 | > 100 | 2.57 | 11.3 | 2.6 | 17 | 18.7 | > 100 | 16.3 | > 100
17 | CNC(=O)c1ccccc1Nc1nc(Nc2ccc(N3CCOCC3)cc2OC)ncc1Cl | 0.542 µM | > 40.8 | 0.206 | > 57.1 | 0.298 | 8.52 | 0.401 | 3.17 | 0.405 | 16.9 | 1.01 | > 74 | 0.764 | 9.66 | 2.02 | > 48.5 | 2.05 | > 100 | 0.197 | 2.01
18 | CCOc1ccccc1-n1c(CN2CCN(C(=O)COc3ccc(CNCCCCCCN4C5CCCC4CC(OC(=O)Nc4cc(C)ccc4OC)C5)cc3)CC2)nc2ccccc2c1=O (centres undefined) | 2.23 µM | 5.4 | 0.64 | 1.35 | 1.66 | 3.27 | 0.582 | 1.08 | 1.7 | 3.21 | 1.88 | 3.91 | 1.79 | 3.45 | 1.13 | 3.4 | 1.76 | 3.35 | 1.72 | 3.14
19 | COc1ccc(/C=C\c2cc(OC)c3c(c2)OCO3)c(O)c1O | – | 59.8 | – | 7.72 | – | 21.4 | – | 16.6 | – | 48.7 | – | 45.9 | – | 3.53 | – | 18.2 | – | 23.6 | – | > 86.6
20 | Cc1ccc(-c2nnc(-c3ccc4ccccc4c3)o2)cc1 | – | > 100 | – | > 21.9 | – | > 100 | – | > 100 | – | > 88.9 | – | 99.9 | – | > 100 | – | > 100 | – | > 100 | – | > 60.6
21 | COc1ccc(-c2cc(-c3ccc(Nc4nc(Nc5ccccc5)nc(Nc5ccc(Cl)cc5)n4)cc3)nc(N)c2C#N)cc1 | 1.2 µM | 3.68 | 1.15 | 6.41 | 0.961 | 2.14 | 0.837 | 1.58 | 0.801 | 1.8 | 1.08 | 2.73 | 1.16 | 3.38 | 0.828 | 3.79 | > 24.8 | > 50 | 0.974 | 1.79
22 | COc1cc2c(c(OC)c1O)C(=O)C(OC)C(c1ccc(O)c(O)c1)O2 (centres undefined) | 0.0776 µM | > 100 | 0.072 | 3.62 | 0.515 | > 100 | 0.352 | > 100 | 48.3 | > 100 | 4.8 | > 100 | 0.0599 | – | 0.285 | 12.9 | 0.275 | > 100 | 40 | > 100
23 | CCN(CC)CC(C(=O)Nc1c(C)cccc1C)/C(C)=N\NC(=O)C[N+](C)(C)C (centres undefined) | – | > 100 | – | > 100 | – | > 100 | – | > 100 | – | > 100 | – | > 100 | – | > 100 | – | > 100 | – | > 100 | – | > 100
24 | CC(=O)[O][Hg][c]1c(N)c(C)cc(C)c1F | 1.01 µM | 2.55 | 1.44 | 5.17 | 10.6 | 22.7 | 0.833 | 2.54 | 1.63 | 3.25 | 16.2 | 44.5 | 0.167 | 0.344 | 1.81 | 6 | 1.99 | 5.13 | 1.87 | 3.32
25 | NC(CSC(c1ccccc1)(c1ccccc1)c1ccc2c(c1)OCO2)C(=O)O (centres undefined) | 1.15 µM | > 81 | 0.313 | 0.836 | 0.605 | > 100 | 0.577 | > 43.6 | 0.979 | 74.4 | 15.9 | > 84.8 | 0.208 | 0.535 | 0.306 | 3.77 | 0.665 | > 100 | 10.6 | > 100
26 | CSc1ccccc1C#C/C=C\C#Cc1ccccc1N1CCCC1=O | – | > 50 | 2.43 | – | – | > 17.6 | – | > 50 | – | > 50 | > 11.4 | > 50 | – | > 50 | 3.34 | – | > 11 | > 50 | > 24.6 | > 50
27 | O=C(CN1CCN(c2cc3c(cc2F)c(=O)c(C(=O)N/N=C/c2ccccc2O)cn3C2CC2)CC1)N/N=C\c1ccccc1O | 0.33 µM | > 100 | 0.36 | – | 0.462 | > 100 | 0.232 | > 75.7 | 0.627 | > 63.4 | 3.71 | > 100 | 0.405 | > 100 | 0.557 | > 100 | 1.18 | > 100 | 0.77 | > 100
28 | CC(=O)C(CN(C(C)C)C(C)C)C(c1ccccc1)c1c(O)c2ccccc2oc1=O (centres undefined) | – | > 100 | – | > 100 | – | > 100 | – | > 100 | – | > 100 | – | > 100 | – | > 100 | – | > 100 | – | > 100 | – | > 100

Source: PubChem BioAssay (NCI)
